Experimental data reported in US20130102595A1 (Curis, Inc., priority 2011, published 2013).

Key:
[1] = test system: HDACs (HeLa cell nuclear extracts); test: HDAC enzymatic activity, Biomol Color de Lys system; type: biochemical; details: 1 hour, 25° C.
Procedure: (E) an In Vitro Assay which Determines the Ability of a Test Compound to Inhibit HDAC Enzymatic Activity.
HDAC inhibitory activity was assessed using the Biomol Color de Lys system (AK-500, Biomol, Plymouth Meeting, Pa.). Briefly, HeLa cell nuclear extracts were used as a source of HDACs. Different concentrations of test compounds were serially diluted in dimethylsulphoxide (DMSO) and added to HeLa cell nuclear extracts in the presence of a colorimetric artificial substrate. Final assay condition contained 50 mM Tris/Cl, pH 8.0, 137 mM NaCl, 2.7 mM KCl and 1 mM MgCl2. Reactions were carried in room temperature (25° C.) for 1 hour before addition of developer for termination. Relative enzyme activity was measured in the WALLAC Victor II 1420 microplate reader as fluorescence intensity (excitation: 350-380 nm; emission: 440-460 nm). Data were analyzed using GraphPad Prism (v4.0a) with a sigmoidal dose response curve fitting for IC50 calculation.

PI3Kα (p110α/p85α) = target: T1, PI3Kα (p110α/p85α) (Homo sapiens, UniProt P42336); test: PI3Kα ADP-Glo assay; type: biochemical; details: 20 μM PIP2, 10 μM ATP, 30 minutes
T1 construct: GST (N); made in house; host or cells: Baculovirus-infected Sf9 cells
T1 sequence (P42336 whole entry): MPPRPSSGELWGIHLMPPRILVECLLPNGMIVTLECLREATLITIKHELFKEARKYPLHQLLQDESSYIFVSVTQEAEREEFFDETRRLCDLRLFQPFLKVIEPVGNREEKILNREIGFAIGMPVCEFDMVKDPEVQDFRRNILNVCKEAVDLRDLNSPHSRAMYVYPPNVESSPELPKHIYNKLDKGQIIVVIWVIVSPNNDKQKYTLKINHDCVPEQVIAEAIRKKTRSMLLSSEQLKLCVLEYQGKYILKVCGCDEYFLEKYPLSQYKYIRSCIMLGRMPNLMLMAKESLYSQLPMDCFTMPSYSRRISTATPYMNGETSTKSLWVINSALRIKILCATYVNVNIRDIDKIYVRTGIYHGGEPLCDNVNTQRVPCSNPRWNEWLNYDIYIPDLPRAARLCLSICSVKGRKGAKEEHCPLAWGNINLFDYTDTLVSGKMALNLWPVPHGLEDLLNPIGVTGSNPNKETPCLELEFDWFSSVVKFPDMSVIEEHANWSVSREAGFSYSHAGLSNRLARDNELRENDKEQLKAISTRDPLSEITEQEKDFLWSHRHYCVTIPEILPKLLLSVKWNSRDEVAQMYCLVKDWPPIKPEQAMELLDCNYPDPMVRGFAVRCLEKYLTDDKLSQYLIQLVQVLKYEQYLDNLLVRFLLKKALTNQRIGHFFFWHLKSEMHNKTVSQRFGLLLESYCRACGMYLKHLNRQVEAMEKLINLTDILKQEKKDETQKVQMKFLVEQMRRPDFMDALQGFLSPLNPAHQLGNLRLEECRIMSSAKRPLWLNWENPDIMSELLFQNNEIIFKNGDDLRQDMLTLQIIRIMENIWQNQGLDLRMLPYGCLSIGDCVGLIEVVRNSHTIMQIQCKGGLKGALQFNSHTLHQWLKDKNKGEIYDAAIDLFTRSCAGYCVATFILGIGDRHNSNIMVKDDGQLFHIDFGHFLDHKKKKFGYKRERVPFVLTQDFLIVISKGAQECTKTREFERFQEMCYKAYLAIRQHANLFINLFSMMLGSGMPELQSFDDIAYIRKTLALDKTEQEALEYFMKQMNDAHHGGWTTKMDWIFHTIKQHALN
T1 sequence (P27986 whole entry partner): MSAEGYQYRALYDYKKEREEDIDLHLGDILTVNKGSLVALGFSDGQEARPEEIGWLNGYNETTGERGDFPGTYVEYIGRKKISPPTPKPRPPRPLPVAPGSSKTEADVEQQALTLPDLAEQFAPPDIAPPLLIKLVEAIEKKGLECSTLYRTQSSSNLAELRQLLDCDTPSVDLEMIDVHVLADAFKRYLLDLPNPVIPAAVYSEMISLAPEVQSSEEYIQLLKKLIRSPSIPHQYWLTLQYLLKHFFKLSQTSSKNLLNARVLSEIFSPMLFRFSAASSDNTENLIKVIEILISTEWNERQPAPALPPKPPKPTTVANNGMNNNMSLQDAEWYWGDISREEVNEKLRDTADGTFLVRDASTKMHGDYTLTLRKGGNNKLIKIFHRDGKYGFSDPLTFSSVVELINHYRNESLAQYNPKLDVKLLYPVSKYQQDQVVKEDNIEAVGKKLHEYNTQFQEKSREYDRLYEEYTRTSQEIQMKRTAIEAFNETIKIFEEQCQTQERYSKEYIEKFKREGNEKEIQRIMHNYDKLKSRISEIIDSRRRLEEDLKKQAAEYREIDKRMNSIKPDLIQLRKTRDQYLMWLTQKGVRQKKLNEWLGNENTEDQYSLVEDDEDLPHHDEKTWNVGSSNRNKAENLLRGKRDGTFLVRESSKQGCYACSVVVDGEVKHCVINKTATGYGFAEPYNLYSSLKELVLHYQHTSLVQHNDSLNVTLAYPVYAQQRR
Procedure: (A) an In Vitro Assay which Determines the Ability of a Test Compound to Inhibit PI3Kα.
Activity of PI3Kα was measured using ADP-Glo assay from Promega. PI3Kα, a complex of N-terminal GST-tagged recombinant full-length human p110α (GenBank, Accession No. U79143) and N-terminal His tagged recombinant full length human p85a (GenBank Accession No. XM—043865) were co-expressed in a Baculovirus infected Sf9 cell expression system. The ADP-Glo assay was performed to measure the amount of ADP generated from ATP hydrolysis coupled with PIP2 phosphorylation by the purified recombinant PI3Kα (p110α/p85α). PI3Kα was incubated with 20 μM PIP2 substrate in the reaction buffer (50 mM HEPES, pH 7.4, 150 mM NaCl, 5 mM MgCl2, 1 mM DTT, 3 uM Naorthovanadate, 10 μM ATP and 0.5% DMSO) for 30 minutes at room temperature. The ADP generated was then detected by ADP-Glo assay from Promega, a luminescent ADP detection assay. The ADP-Glo assay is performed in two steps; first, after the kinase reaction, ADP-Glo Reagent is added to terminate the kinase reaction and deplete the remaining ATP. Second, the Kinase Detection Reagent is added to simultaneously convert ADP to ATP and allow the newly synthesized ATP to be measured using a luciferase/luciferin reaction.

| SMILES | melting point [°C] | IC50 [1] [µM] | IC50 (PI3Kα (p110α/p85α)) [µM] |
| --- | --- | --- | --- |
| CS(=O)(=O)N1CCN(Cc2cc3nc(-c4cccc5c4cnn5CCCCC(=O)NO)nc(N4CCOCC4)c3s2)CC1 [Compound 3, N-hydroxy-5-(4-(6-((4-(methylsulfonyl)piperazin-1-yl)methyl)-4-morpholinothieno[3,2-d]pyrimidin-2-yl)-1H-indazol-1-yl)pentanamide] | 139 to 143 | – | – |
| CS(=O)(=O)N1CCN(Cc2cc3nc(-c4cccc5nn(CCCCC(=O)NO)cc45)nc(N4CCOCC4)c3s2)CC1 [Compound 7, N-hydroxy-5-(4-(6-((4-(methylsulfonyl)piperazin-1-yl)methyl)-4-morpholinothieno[3,2-d]pyrimidin-2-yl)-2H-indazol-2-yl)pentanamide] | 146 to 169 | 0.1 to 1 | 0.1 to 1 |
| CS(=O)(=O)N1CCN(Cc2cc3nc(-c4cccc5nn(CCCCCC(=O)NO)cc45)nc(N4CCOCC4)c3s2)CC1 [Compound 8, N-hydroxy-6-(4-(6-((4-(methylsulfonyl)piperazin-1-yl)methyl)-4-morpholinothieno[3,2-d]pyrimidin-2-yl)-2H-indazol-2-yl)hexanamide] | 124 to 125 | < 0.1 | > 10 |
| O=C(CCCCN1CCN(Cc2cc3nc(-c4cccc5[nH]ncc45)nc(N4CCOCC4)c3s2)CC1)NO [Compound 11, 5-(4-((2-(1H-indazol-4-yl)-4-morpholinothieno[3,2-d]pyrimidin-6-yl)methyl)piperazin-1-yl)-N-hydroxypentanamide] | 125 to 127 | 1 to 10 | – |
| CS(=O)(=O)N1CCN(Cc2cc3nc(-c4cccc5[nH]ncc45)nc(N4CCN(CCCCCC(=O)NO)CC4)c3s2)CC1 [Compound 31, 6-(4-(2-(1H-indazol-4-yl)-6-((4-(methylsulfonyl)piperazin-1-yl)methyl)thieno[3,2-d]pyrimidin-4-yl)piperazin-1-yl)-N-hydroxyhexanamide] | 140 to 145 | 0.1 to 1 | > 10 |
| CS(=O)(=O)N1CCN(Cc2cc3nc(-c4cccc5[nH]ncc45)nc(N4CCN(CCCCCCC(=O)NO)CC4)c3s2)CC1 [Compound 32, 7-(4-(2-(1H-indazol-4-yl)-6-((4-(methylsulfonyl)piperazin-1-yl)methyl)thieno[3,2-d]pyrimidin-4-yl)piperazin-1-yl)-N-hydroxyheptanamide] | 131 to 134 | 0.1 to 1 | > 10 |
| O=C(CCCCNCc1cc2nc(-c3cccc4[nH]ncc34)nc(N3CCOCC3)c2s1)NO [Compound 42, 5-((2-(1H-indazol-4-yl)-4-morpholinothieno[3,2-d]pyrimidin-6-yl)methylamino)-N-hydroxypentanamide] | 145 to 147 | < 0.1 | 1 to 10 |
| O=C(CCCCCCNCc1cc2nc(-c3cccc4[nH]ncc34)nc(N3CCOCC3)c2s1)NO [Compound 44, 7-((2-(1H-indazol-4-yl)-4-morpholinothieno[3,2-d]pyrimidin-6-yl)methylamino)-N-hydroxyheptanamide] | 188 to 190 | 0.1 to 1 | < 0.1 |
| CN(Cc1cc2nc(-c3cccc(CCO)c3)nc(N3CCOCC3)c2s1)c1ncc(C(=O)NO)cn1 [Compound 306] | – | < 0.1 | 0.1 to 1 |
| Nc1ccc(-c2nc(N3CCOCC3)c3sc(S(=O)(=O)NCC4CCN(c5ncc(C(=O)NO)cn5)CC4)cc3n2)cc1 [Compound 309] | – | 0.1 to 1 | 0.1 to 1 |
| CCCc1nc2cc(/C=C/C(=O)NO)ccc2n1CCN(C)Cc1cc2nc(-c3ccc(NC)nc3)nc(N3CCOCC3)c2s1 [Compound 322] | – | 0.1 to 1 | 0.1 to 1 |
| CCCc1nc2cc(/C=C/C(=O)NO)ccc2n1CCNCc1cc2nc(-c3ccc(NC)nc3)nc(N3CCOCC3)c2s1 [Compound 323] | – | 0.1 to 1 | < 0.1 |
| CCCc1nc2cc(/C=C/C(=O)NO)ccc2n1CCNCc1cc2nc(-c3ccc(N)cc3)nc(N3CCOCC3)c2s1 [Compound 325] | – | 0.1 to 1 | 1 to 10 |

Now from value to compound:

| melting point [°C] | IC50 [1] [µM] | IC50 (PI3Kα (p110α/p85α)) [µM] | SMILES |
| --- | --- | --- | --- |
| 123 to 126 | < 0.1 | > 10 | CS(=O)(=O)N1CCN(Cc2cc3nc(-c4cccc5nn(CCCCCCC(=O)NO)cc45)nc(N4CCOCC4)c3s2)CC1 [Compound 9, N-hydroxy-7-(4-(6-((4-(methylsulfonyl)piperazin-1-yl)methyl)-4-morpholinothieno[3,2-d]pyrimidin-2-yl)-2H-indazol-2-yl)heptanamide] |
| 123 to 124 | 0.1 to 1 | < 0.1 | O=C(CCCCCN1CCN(Cc2cc3nc(-c4cccc5[nH]ncc45)nc(N4CCOCC4)c3s2)CC1)NO [Compound 12] |
| 119 to 122 | 0.1 to 1 | 0.1 to 1 | O=C(CCCCCCN1CCN(Cc2cc3nc(-c4cccc5[nH]ncc45)nc(N4CCOCC4)c3s2)CC1)NO [Compound 13, 7-(4-((2-(1H-indazol-4-yl)-4-morpholinothieno[3,2-d]pyrimidin-6-yl)methyl)piperazin-1-yl)-N-hydroxyheptanamide] |
| 142 to 145 | 0.1 to 1 | > 10 | CS(=O)(=O)N1CCN(Cc2cc3nc(-c4cccc5[nH]ncc45)nc(N4CCN(CCCCC(=O)NO)CC4)c3s2)CC1 [Compound 30, 5-(4-(2-(1H-indazol-4-yl)-6-((4-(methylsulfonyl)piperazin-1-yl)methyl)thieno[3,2-d]pyrimidin-4-yl)piperazin-1-yl)-N-hydroxypentanamide] |
| 149 to 152 | < 0.1 | 0.1 to 1 | O=C(CCCNCc1cc2nc(-c3cccc4[nH]ncc34)nc(N3CCOCC3)c2s1)NO [Compound 41, 4-((2-(1H-indazol-4-yl)-4-morpholinothieno[3,2-d]pyrimidin-6-yl)methylamino)-N-hydroxybutanamide] |
| 218 to 220 | < 0.1 | < 0.1 | O=C(NO)c1ccc(NCc2cc3nc(-c4cccc5[nH]ncc45)nc(N4CCOCC4)c3s2)nc1 [Compound 76, 6-((2-(1H-indazol-4-yl)-4-morpholinothieno[3,2-d]pyrimidin-6-yl)methylamino)-N-hydroxynicotinamide] |
| 180 to 183 | < 0.1 | 0.1 to 1 | O=C(NO)c1ccc(NCc2cc3nc(-c4cccc5[nH]ncc45)nc(N4CCOCC4)c3s2)cc1 [Compound 78, 4-((2-(1H-indazol-4-yl)-4-morpholinothieno[3,2-d]pyrimidin-6-yl)methylamino)-N-hydroxybenzamide] |
| > 300 | 0.1 to 1 | < 0.1 | O=C(/C=C/c1ccc(NCc2cc3nc(-c4cccc5[nH]ncc45)nc(N4CCOCC4)c3s2)cc1)NO [Compound 80, (E)-3-(4-((2-(1H-indazol-4-yl)-4-morpholinothieno[3,2-d]pyrimidin-6-yl)methylamino)phenyl)-N-hydroxyacrylamide] |
| – | < 0.1 | 0.1 to 1 | Cc1ncc(-c2nc(N3CCOCC3)c3sc(CN(CCO)c4ncc(C(=O)NO)cn4)cc3n2)s1 [Compound 312] |
| – | < 0.1 | < 0.1 | CN(Cc1cc2nc(-c3cccc4[nH]c(=S)[nH]c34)nc(N3CCOCC3)c2s1)c1ncc(C(=O)NO)cn1 [Compound 315] |
| – | < 0.1 | < 0.1 | CN(Cc1cc2nc(-c3cccc4[nH]c(=O)sc34)nc(N3CCOCC3)c2s1)c1ncc(C(=O)NO)cn1 [Compound 317] |
| – | 0.1 to 1 | 0.1 to 1 | CCCc1nc2cc(/C=C/C(=O)NO)ccc2n1CCN(C)Cc1cc2nc(-c3ccc(N)cc3)nc(N3CCOCC3)c2s1 [Compound 324] |
| – | 0.1 to 1 | 0.1 to 1 | Cn1c(CNCc2cc3nc(-c4ccc(N)cc4)nc(N4CCOCC4)c3s2)nc2cc(/C=C/C(=O)NO)ccc21 [Compound 326] |
| – | 0.1 to 1 | 1 to 10 | CN(Cc1cc2nc(-c3ccc(N)cc3)nc(N3CCOCC3)c2s1)Cc1nc2cc(/C=C/C(=O)NO)ccc2n1C [Compound 327] |
| – | 0.1 to 1 | < 0.1 | CNc1ccc(-c2nc(N3CCOCC3)c3sc(CNCc4nc5cc(/C=C/C(=O)NO)ccc5n4C)cc3n2)cn1 [Compound 328] |
| – | 0.1 to 1 | < 0.1 | CNc1ccc(-c2nc(N3CCOCC3)c3sc(CN(C)Cc4nc5cc(/C=C/C(=O)NO)ccc5n4C)cc3n2)cn1 [Compound 329] |
